The results in this text go back to US8916565B2, “Pyrrolopyrazine-spirocyclic piperidine amides as modulators of ion channels” (priority 2011, dated 2014).

The structures appear in SMILES notation.

Chain of human NaV subtype, like NaV 1.7 (Q15858 whole entry): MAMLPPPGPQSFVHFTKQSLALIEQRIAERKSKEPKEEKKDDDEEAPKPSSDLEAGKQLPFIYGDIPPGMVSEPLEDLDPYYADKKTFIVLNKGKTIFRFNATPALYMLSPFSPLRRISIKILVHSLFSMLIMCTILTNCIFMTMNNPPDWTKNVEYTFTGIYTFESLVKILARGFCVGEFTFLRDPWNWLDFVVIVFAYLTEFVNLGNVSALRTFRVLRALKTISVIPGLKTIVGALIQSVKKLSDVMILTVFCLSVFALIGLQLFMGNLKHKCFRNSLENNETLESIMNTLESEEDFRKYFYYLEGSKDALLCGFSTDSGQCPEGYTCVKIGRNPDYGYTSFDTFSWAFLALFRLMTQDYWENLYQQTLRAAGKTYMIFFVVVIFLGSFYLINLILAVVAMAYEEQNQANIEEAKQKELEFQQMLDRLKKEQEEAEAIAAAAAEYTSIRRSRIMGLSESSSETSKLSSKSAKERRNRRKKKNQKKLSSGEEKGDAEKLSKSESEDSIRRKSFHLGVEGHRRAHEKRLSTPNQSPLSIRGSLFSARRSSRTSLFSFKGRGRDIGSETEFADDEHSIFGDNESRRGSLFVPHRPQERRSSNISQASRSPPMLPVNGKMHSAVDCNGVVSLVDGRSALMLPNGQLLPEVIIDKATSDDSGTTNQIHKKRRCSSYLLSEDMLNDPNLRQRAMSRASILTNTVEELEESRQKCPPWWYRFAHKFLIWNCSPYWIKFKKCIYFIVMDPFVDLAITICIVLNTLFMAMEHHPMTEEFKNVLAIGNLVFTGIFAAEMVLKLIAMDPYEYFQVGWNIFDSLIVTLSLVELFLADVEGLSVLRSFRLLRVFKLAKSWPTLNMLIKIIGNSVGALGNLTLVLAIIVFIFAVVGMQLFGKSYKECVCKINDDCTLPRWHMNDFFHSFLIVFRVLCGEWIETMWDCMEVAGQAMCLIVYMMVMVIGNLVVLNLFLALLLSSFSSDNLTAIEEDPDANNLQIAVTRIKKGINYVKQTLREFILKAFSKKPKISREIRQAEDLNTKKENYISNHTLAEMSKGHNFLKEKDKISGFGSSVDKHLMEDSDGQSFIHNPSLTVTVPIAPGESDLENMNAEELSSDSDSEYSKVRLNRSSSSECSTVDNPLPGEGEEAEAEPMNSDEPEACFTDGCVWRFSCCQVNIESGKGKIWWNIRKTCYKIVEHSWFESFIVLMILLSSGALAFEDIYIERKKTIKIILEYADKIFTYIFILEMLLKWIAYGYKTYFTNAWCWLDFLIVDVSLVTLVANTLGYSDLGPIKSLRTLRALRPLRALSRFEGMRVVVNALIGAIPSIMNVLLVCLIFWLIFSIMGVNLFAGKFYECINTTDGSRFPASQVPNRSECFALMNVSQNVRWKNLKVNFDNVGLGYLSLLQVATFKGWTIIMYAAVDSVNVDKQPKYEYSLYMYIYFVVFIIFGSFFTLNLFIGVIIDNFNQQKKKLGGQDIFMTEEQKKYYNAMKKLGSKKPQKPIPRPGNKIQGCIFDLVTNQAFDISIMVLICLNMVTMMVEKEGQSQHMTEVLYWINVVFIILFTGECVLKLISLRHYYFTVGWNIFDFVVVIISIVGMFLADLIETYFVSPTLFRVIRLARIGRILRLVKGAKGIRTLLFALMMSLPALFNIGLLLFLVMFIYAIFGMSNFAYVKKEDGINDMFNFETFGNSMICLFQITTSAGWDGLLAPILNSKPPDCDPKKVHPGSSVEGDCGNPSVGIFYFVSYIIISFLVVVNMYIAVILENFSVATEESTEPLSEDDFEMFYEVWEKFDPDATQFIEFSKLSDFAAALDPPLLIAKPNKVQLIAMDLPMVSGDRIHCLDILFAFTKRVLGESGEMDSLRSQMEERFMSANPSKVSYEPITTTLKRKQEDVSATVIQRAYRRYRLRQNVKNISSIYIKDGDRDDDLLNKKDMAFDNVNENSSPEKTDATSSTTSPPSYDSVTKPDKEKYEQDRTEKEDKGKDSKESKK

The target of this experiment is human NaV subtype, like NaV 1.7 (Homo sapiens, UniProt Q15858). The experiment can be described thus: E-VIPR optical membrane potential assay with electrical stimulation. It is filed as cell-based. As to conditions: active against one or more sodium channels; Table 3 does not name the assay or NaV subtype; read-out: Binned Activity Data (IC50). From the text:
Assays for Detecting and Measuring NaV Inhibition Properties of Compound E-VIPR Optical Membrane Potential Assay Method with Electrical Stimulation
Sodium channels are voltage-dependent proteins that can be activated by inducing membrane voltage changes by applying electric fields. The electrical stimulation instrument and methods of use are described in Ion Channel Assay Methods PCT/US01/21652, herein incorporated by reference and are referred to as E-VIPR. The instrument comprises a microtiter plate handler, an optical system for exciting the coumarin dye while simultaneously recording the coumarin and oxonol emissions, a waveform generator, a current- or voltage-controlled amplifier, and a device for inserting electrodes in well. Under integrated computer control, this instrument passes user-programmed electrical stimulus protocols to cells within the wells of the microtiter plate.
24 hours before the assay on E-VIPR, HEK cells expressing human NaV subtype, like NaV 1.7, are seeded in 384-well poly-lysine coated plates at 15,000-20,000 cells per well. Other subtypes are performed in an analogous mode in a cell line expressing the NaV of interest. HEK cells are grown in media (exact composition is specific to each cell type and NaV subtype) supplemented with 10% FBS (Fetal Bovine Serum, qualified; GibcoBRL #16140-071) and 1% Pen-Strep (Penicillin-Streptomycin; GibcoBRL #15140-122). Cells are grown in vented cap flasks, in 90% humidity and 10% CO2, to 100% confluence. They are usually split by trypsinization 1:10 or 1:20, depending on scheduling needs, and grown for 2-3 days before the next split.
Bath 1 buffer. Glucose 10 mM (1.8 g/L), Magnesium Chloride (Anhydrous), 1 mM (0.095 g/L), Calcium Chloride, 2 mM (0.222 g/L), HEPES 10 mM (2.38 g/L), Potassium Chloride, 4.5 mM (0.335 g/L), Sodium Chloride 160 mM (9.35 g/L).
Hexyl Dye Solution: Bath 1 Buffer+0.5% β-cyclodextrin (make this prior to use, Sigma #C4767), 8 μM CC2-DMPE+2.5 μM DiSBAC6(3). To make the solution Add volume of 10% Pluronic F127 stock equal to volumes of CC2-DMPE+DiSBAC6(3). The order of preparation is first mix Pluronic and CC2-DMPE, then add DiSBAC6(3) while vortexing, then add Bath 1+β-Cyclodextrin.
1) Pre-spot compounds (in neat DMSO) into compound plates. Vehicle control (neat DMSO), the positive control (20 mM DMSO stock tetracaine, 125 μM final in assay) and test compounds are added to each well at 160× desired final concentration in neat DMSO. Final compound plate volume will be 80 μL (80-fold intermediate dilution from 1 μL DMSO spot; 160-fold final dilution after transfer to cell plate). Final DMSO concentration for all wells in assay is 0.625%.
2) Prepare Hexyl Dye Solution.
3) Prepare cell plates. On the day of the assay, medium is aspirated and cells are washed three times with 100 μL of Bath 1 Solution, maintaining 25 μL residual volume in each well.
4) Dispense 25 μL per well of Hexyl Dye Solution into cell plates. Incubate for 20-35 minutes at room temp or ambient conditions.
5) Dispense 80 μL per well of Bath 1 into compound plates. Acid Yellow-17 (1 mM) is added and Potassium Chloride can be altered from 4.5 to 20 mM depending on the NaV subtype and assay sensitivity.
6) Wash cell plates three times with 100 μL per well of Bath1, leaving 25 μL of residual volume. Then transfer 25 uL per well from Compound Plates to Cell Plates. Incubate for 20-35 minutes at room temp/ambient condition
7) Read Plate on E-VIPR. Use the current-controlled amplifier to deliver stimulation wave pulses for typically 9 seconds and a scan rate of 400 Hz. A pre-stimulus recording is performed for 0.5 seconds to obtain the un-stimulated intensities baseline. The stimulatory waveform is applied for 9 seconds followed by 0.5 seconds of post-stimulation recording to examine the relaxation to the resting state.
By IC50 is commonly meant the concentration needed to halve the response being measured. Turning to `CN1CCn2c(Cl)ccc2C12CCN(C(=O)c1ccc(OC(F)(F)F)cc1)CC2` [Compound 323], the 50% inhibitory concentration (IC50) is above 5 µM.

For `CC(=O)c1ccc2n1CCN(C)C21CCN(C(=O)c2ccc(COCCC(F)(F)F)cc2)CC1` [Compound 623], the concentration for half-maximal inhibition (IC50) is at most 2 µM.

Take `Cc1cc(C(=O)N2CCC3(CC2)c2ccc(C(=O)C(F)(F)F)n2C(C)CN3C)ccc1OC(C)C` (stereo not shown) [Compound 355]: the IC50 is at most 2 µM.

For the compound `Cc1cc(C(=O)N2CCC3(CC2)c2c(C#N)cc(C(F)(F)F)n2CCN3C)ccc1C(C)(C)O` [Compound 120], the IC50 was 2 to 5 µM.

`CC(=O)c1ccc2n1CC(C)(C)NC21CCN(C(=O)c2ccc(C3CCCCC3)cc2)CC1` [Compound 643]: the IC50 was at most 2 µM.

On to `CC(C)Oc1ccc(C(=O)N2CCC3(CC2)c2ccc(C(=O)C(F)(F)F)n2CCN3C)cc1C(F)(F)F` [Compound 676], for which the IC50 is at most 2 µM.

Take `CNC(=O)N1CCn2c(C(F)(F)F)ccc2C12CCN(C(=O)c1ccc(OC(C)C)c(OC)c1)CC2` [Compound 119]: the IC50 was at most 2 µM.

Take `COc1ccc(C(=O)N2CCC3(CC2)c2c(Cl)cc(C(F)(F)F)n2CCN3C)cc1C` [Compound 713]: the 50% inhibitory concentration (IC50) lay within 2 to 5 µM.

Regarding `CC(C)CCOc1ccc(C(=O)N2CCC3(CC2)c2ccc(C(=O)C(F)(F)F)n2C(C)CN3C)nc1` (stereo not shown) [Compound 444], the IC50 is at most 2 µM.

As for `CCCN(CCC)S(=O)(=O)c1ccc(C(=O)N2CCC3(CC2)c2ccc(C(C)=O)n2CCN3C)cc1` [Compound 94], the IC50 was 2 to 5 µM.

`CCNS(=O)(=O)c1ccc(C(=O)N2CCC3(CC2)c2ccc(C(F)(F)F)n2CCN3C)cc1C` [Compound 343]: the 50% inhibitory concentration (IC50) was at most 2 µM.

For `COc1ccc(C(=O)N2CCC3(CC2)c2ccc(C(=O)C4(C)CC4)n2CCN3C)cc1C` [Compound 276], the 50% inhibitory concentration (IC50) is at most 2 µM.

Regarding `CN1CCn2c(C(=O)C(F)(F)F)ccc2C12CCN(C(=O)c1ccc(C(O)COCC(F)(F)F)cc1)CC2` (stereo not shown) [Compound 72], the half-inhibitory concentration (IC50) was at most 2 µM.

As to `Cc1cc(C(=O)N2CCC3(CC2)c2ccc(C(F)(F)F)n2CCN3CCO)ccc1OC(C)C` [Compound 156], the IC50 is at most 2 µM.

As for `CC(C)Oc1ccc(C(=O)N2CCC3(CC2)c2ccc(Cl)n2CCN3C)cc1F` [Compound 25], the half-inhibitory concentration (IC50) is above 5 µM.

As to `CN1CCn2c(C(O)C(F)(F)F)ccc2C12CCN(C(=O)c1ccc(C3CCCCC3)cc1)CC2` (stereo not shown) [Compound 631], the IC50 was above 5 µM.

For the compound `CCNc1ccnc2c(C(=O)N3CCC4(CC3)c3ccc(C(F)(F)F)n3CCN4C)cnn12` [Compound 481], the IC50 is at most 2 µM.

`CCc1ccc(C(=O)N2CCC3(CC2)c2ccc(C(=O)C(F)(F)F)n2CCN3C)cc1OC` [Compound 537]: the IC50 is at most 2 µM.

On to `CN1CCn2c(C(=O)C3CC3)ccc2C12CCN(C(=O)c1ccc(COCCC(F)(F)F)cc1)CC2` [Compound 627], for which the IC50 was at most 2 µM.

For `CN1CCn2c(C(=O)C(F)(F)F)ccc2C12CCN(C(=O)c1ccc(-c3ccccc3)cc1)CC2` [Compound 172], the IC50 was at most 2 µM.

For `CN1CCn2c(C(=O)C(F)(F)F)ccc2C12CCN(C(=O)c1ccc(S(=O)(=O)N(C)c3nccs3)cc1)CC2` [Compound 752], the half-inhibitory concentration (IC50) is at most 2 µM.

`CC(C)Oc1ccc(C(=O)N2CCC3(CC2)c2ccc(Cl)n2CCN3C)cc1CO` [Compound 678]: the half-maximal inhibitory concentration (IC50) was in the range of 2 to 5 µM.

Regarding `CC(C)CCOc1ccc(C(=O)N2CCC3(CC2)c2ccc(C(=O)C(F)(F)F)n2CCN3C)cc1` [Compound 143], the half-inhibitory concentration (IC50) is at most 2 µM.

Take `COc1ccc(C(=O)N2CCC3(CC2)c2ccc(C(=O)C(C)(C)C)n2CCN3C)c(F)c1` [Compound 578]: the half-inhibitory concentration (IC50) was in the range of 2 to 5 µM.

As for `Cc1cc(C(=O)N2CCC3(CC2)c2ccc(Cl)n2CCN3C)ccc1OC(C)C` [Compound 710], the IC50 is at most 2 µM.

Regarding `CN1CCn2c(C(=O)C(F)(F)F)ccc2C12CCN(C(=O)c1ccc(OCc3ccccc3)cc1)CC2` [Compound 369], the IC50 is at most 2 µM.

As to `CN1CCn2c(C(=O)C3CC3)ccc2C12CCN(C(=O)c1ccc(C3CCCCC3)cc1)CC2` [Compound 66], the IC50 is at most 2 µM.

For the compound `CC1(C)Cn2c(C(=O)C(F)(F)F)ccc2C2(CCN(C(=O)c3ccc(O)c(C(F)(F)F)c3)CC2)N1` [Compound 567], the IC50 is at most 2 µM.

For `COc1ccc(C(=O)N2CCC3(CC2)NC(C)(C)Cn2c(C(=O)C(F)(F)F)ccc23)cc1C(F)(F)F` [Compound 377], the 50% inhibitory concentration (IC50) was at most 2 µM.

`CC1(C)Cn2c(C(=O)C(F)(F)F)ccc2C2(CCN(C(=O)c3ccc(O)c(Cl)c3)CC2)N1` [Compound 491]: the IC50 was at most 2 µM.

As to `Cc1cc(C(=O)N2CCC3(CC2)c2c(Cl)cc(C(F)(F)F)n2CCN3C)ccc1C(C)(C)O` [Compound 466], the IC50 was at most 2 µM.

For the compound `COc1ccc(C(=O)N2CCC3(CC2)NCC(C)n2c(C(=O)C(F)(F)F)ccc23)cc1Cl` (stereo not shown) [Compound 341], the IC50 is at most 2 µM.

Consider `CN1CCn2c(ccc2C(F)(F)C(F)(F)F)C12CCN(C(=O)c1ccc(C3(O)CCCC3)cc1)CC2` [Compound 587], for which the half-maximal inhibitory concentration (IC50) was at most 2 µM.

Regarding `CC(C)Oc1ccc(C(=O)N2CCC3(CC2)c2ccc(Cl)n2CCN3C)cc1` [Compound 696], the concentration for half-maximal inhibition (IC50) is above 5 µM.

Take `Cc1cccc(C(=O)N2CCC3(CC2)c2ccc(C(F)(F)F)n2CCN3C)n1` [Compound 63]: the IC50 is above 5 µM.

As for `COc1cc(C(=O)N2CCC3(CC2)c2ccc(C(F)(F)F)n2CCN3C)cc(F)c1OC(C)C` [Compound 544], the IC50 is at most 2 µM.

Take `COc1cc(C(=O)N2CCC3(CC2)N[C@H]2CCCC[C@H]2n2cccc23)ccc1OCCC(C)C` [Compound 247]: the 50% inhibitory concentration (IC50) is at most 2 µM.

On to `CC1(C)Cn2c(C(=O)C(F)(F)F)ccc2C2(CCN(C(=O)c3ccc(COCCC(F)(F)F)cc3)CC2)N1` [Compound 103], for which the IC50 is at most 2 µM.

With `CCOC(=O)CN1CCn2c(C(F)(F)F)ccc2C12CCN(C(=O)c1ccc(OC(C)C)c(C)c1)CC2` [Compound 426], the concentration for half-maximal inhibition (IC50) is at most 2 µM.

For `CCOc1ccc(C(=O)N2CCC3(CC2)c2ccc(C(C)=O)n2CCN3C)cc1OCC` [Compound 416], the half-inhibitory concentration (IC50) was above 5 µM.

For `CN1CCn2c(C(F)(F)F)ccc2C12CCN(C(=O)c1cccc3cccnc13)CC2` [Compound 281], the IC50 is at most 2 µM.

With `COc1ccc(C(=O)N2CCC3(CC2)c2ccc(C(=O)c4ccccc4)n2CCN3C)cc1C` [Compound 694], the 50% inhibitory concentration (IC50) was 2 to 5 µM.

For `CN1CCn2c(C(=O)C(F)(F)F)ccc2C12CCN(C(=O)c1ccc(C(CO)OCC(F)(F)F)cc1)CC2` (stereo not shown) [Compound 136], the 50% inhibitory concentration (IC50) was at most 2 µM.

As to `CN1CCn2c(C(F)(F)F)ccc2C12CCN(C(=O)c1ccccc1Oc1ccccc1)CC2` [Compound 27], the half-inhibitory concentration (IC50) was at most 2 µM.

`CC(C)CCOc1ccc(C(=O)N2CCC3(CC2)NCC(C)n2c(C(=O)C(F)(F)F)ccc23)nc1` (stereo not shown) [Compound 611]: the half-inhibitory concentration (IC50) was at most 2 µM.

As for `COc1ccc(C(=O)N2CCC3(CC2)c2ccc(C(=O)C(F)(F)F)n2C(C)CN3C)nc1C` (stereo not shown) [Compound 15], the IC50 was at most 2 µM.

For the compound `CCCCOc1ccc(C(=O)N2CCC3(CC2)c2ccc(C(=O)C(F)(F)F)n2CCN3C)cc1` [Compound 592], the concentration for half-maximal inhibition (IC50) was at most 2 µM.

As for `Cc1nc(C(=O)N2CCC3(CC2)c2ccc(C(F)(F)F)n2CCN3C)ccc1OC(C)C` [Compound 200], the IC50 was at most 2 µM.

`CC(C)c1ccc(C(=O)N2CCC3(CC2)c2ccc(C(=O)C(F)(F)F)n2CCN3C)cc1` [Compound 290]: the half-maximal inhibitory concentration (IC50) is at most 2 µM.
